This data set deals with HeyA8 cells. Kind of data set: In vitro anoikis (poly-HEMA plates, Annexin V-FITC/PI). The data set is classed as cell-based, human. The conditions noted are these: HeyA8 cells in suspension, 72 h. The method, then: In vitro anoikis. Cells were transfected with control or ZNF304 siRNA and transferred to 6-well tissue culture plates that were coated with polyhydroxyethylmethacrylate, and cells were cultured in these plates for 72 h at 37° C. in a 5% CO2 atmosphere. Cells were washed with PBS and were stained with Annexin V-FITC and PI solution (50 μg/ml) containing RNase A (25 μg/ml). After incubating the pellets for 30 min at 37° C., cell viability was analyzed by flow cytometry.
β1 integrin confers a survival advantage to tumor cells (Vachon, 2011). […] Therefore, the anoikis rates were examined at 24, 48, and 72 h in detached HeyA8 cells in vitro using polyhydroxyethylmethacrylate (poly-HEMA)-coated tissue culture plates that promote anchorage-independent cell growth (Sood et al., 2010).

For the substance “Control siRNA: non-silencing siRNA without homology to any known human mRNA, UUCUCCGAACGUGUCACGUUU (SEQ ID NO: 15) (listed as RNA, chemistry not given here)”, the rate of anoikis came to 60%.

The values are drawn from patent publication US10874622B2, “Dual assembly nanoparticles” (BOARD OF REGENTS, THE UNIVERSITY OF TEXAS SYSTEM, priority 2015, dated 2020).
